Laboratory results reported in PubChem BioAssay AID564 (University of Pittsburgh Molecular Library Screening Center, 2006).
Active and inactive are the calls of the source. How the calls were made is not given here.

Target: Dual specificity protein phosphatase 6 (Rattus norvegicus) (UniProt Q64346)
Test: MKP-3 phosphatase inhibition with catalase present, dose response, biochemical, rat DUSP6, catalase added, probe assessment (AID 564)
Details: recombinant MKP-3 phosphatase, fluorescence

Chain of Dual specificity protein phosphatase 6 (Rattus norvegicus) (Q64346 whole entry, looked up): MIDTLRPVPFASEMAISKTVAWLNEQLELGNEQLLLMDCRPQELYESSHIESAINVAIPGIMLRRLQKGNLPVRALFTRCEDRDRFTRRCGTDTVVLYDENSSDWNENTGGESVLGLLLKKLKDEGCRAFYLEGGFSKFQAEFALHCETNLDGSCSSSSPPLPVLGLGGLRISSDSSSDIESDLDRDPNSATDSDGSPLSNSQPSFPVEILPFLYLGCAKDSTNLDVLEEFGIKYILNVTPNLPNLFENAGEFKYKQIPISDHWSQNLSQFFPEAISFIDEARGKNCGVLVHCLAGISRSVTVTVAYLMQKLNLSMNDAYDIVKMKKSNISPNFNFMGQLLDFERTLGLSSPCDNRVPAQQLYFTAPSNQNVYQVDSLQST

- IC50: > 50 µM (inactive)
Compound: O=C1C(C2=C(O)c3ccccc3C2=O)=Nc2ccccc21
